Test in all cases: DTP human tumour cell line panel, 48 h
The subject of assay [1] is K562.
The test system of assay [2] is SK-MEL-28.
For assay [3], the system named is SR.
The subject of assay [4] is KM12.
Assay [5] has as its system UACC-62.
The subject of assay [6] is RPMI-8226.
For assay [7], the system named is SK-OV-3.
The test system of assay [8] is A549.
Assay [9] has as its system COLO 205.
For assay [10], the system named is BT-549.
The subject of assay [11] is 786-0.
Assay [12] concerns NCI-H23.
In assay [13] the test system is HOP-62.
Assay [14] has as its system NCI-H522.
The test system of assay [15] is T47D.
The test system of assay [16] is SK-MEL-5.
Assay [17] relates to LOX IMVI.
Assay [18] has as its system M14.
Assay [19] concerns HCT-15.
The test system of assay [20] is PC-3.

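Cultured in 96-well plates, cells were exposed to test compound for 48 hours across five concentrations. GI50 marks 50% less growth.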 Active and inactive are the calls of the source. No stated cut-off is given here; in the data, active = GI50 up to about 1.1 µM and inactive = higher.

As to `COc1ccc2c(-c3ccc(O)cc3)c(Oc3ccc(Cl)cc3)c(=O)oc2c1`, the GI50 was 7.21 µM (inactive) in [1]; 7.71 µM (inactive) in assay [2]; 2.94 µM (inactive) in assay [3]; 5.75 µM (inactive) in [4]; 4.98 µM (inactive) in assay [5]; 3.99 µM (inactive) in [6]. The GI50 in assay [7] was 12 µM (inactive); in [8], 4.7 µM (inactive); in assay [9], 6.08 µM (inactive); in assay [10], 8.75 µM (inactive); in [11], 7.85 µM (inactive); in assay [12], 2.79 µM (inactive). Also, the GI50 in assay [13] was 12.9 µM (inactive); in assay [14], 2.55 µM (inactive); in assay [15], 5.26 µM (inactive); in assay [16], 3.48 µM (inactive); in assay [17], 11.1 µM (inactive); in assay [18], 6.07 µM (inactive). The GI50 in assay [19] was 4.66 µM; in [20] it was 7.69 µM (inactive).

As to `COc1ccc(Oc2ccc3cc4c(cc3c2O)OCO4)c2cc(C)oc12`, the GI50 in assay [1] is 14.6 µM (inactive); in assay [2], 47.5 µM (inactive); in assay [3], 19.3 µM (inactive); in [4], 28.3 µM (inactive); in [5] it was 35.6 µM (inactive); in assay [6] it was 14.9 µM (inactive). Besides, the GI50 was 52.7 µM (inactive) in [7]; 30.1 µM (inactive) in assay [8]; 25.5 µM (inactive) in assay [9]; 22.5 µM (inactive) in [10]; 35.8 µM (inactive) in [11]; 26.4 µM (inactive) in assay [12]. For the same molecule, the GI50 in [13] is 41.1 µM (inactive); in assay [14] it was 20.9 µM (inactive); in [15] it was 12.3 µM (inactive); in assay [16], 16.4 µM (inactive); in [17], 19.3 µM (inactive); in assay [18], 26.6 µM (inactive). Moreover, the GI50 is 22.1 µM in assay [19] and 24.8 µM (inactive) in assay [20].

For the molecule `COc1c2c(cc3c1C(O)N1CC[C@]34[C@H]3O[C@H]3[C@H](OC)C[C@@H]14)OCO2` (stereo not given in full), the GI50 is 48 µM (inactive) in assay [1]; > 100 µM (inactive) in assay [2]; 21.9 µM (inactive) in assay [3]; 73.1 µM (inactive) in assay [4]; 39.3 µM (inactive) in assay [5]; 82 µM (inactive) in assay [6]. In addition, the GI50 in assay [7] is 24.2 µM (inactive); in assay [8], > 100 µM (inactive); in assay [9], 97.9 µM (inactive); in [10], > 100 µM (inactive); in [11], > 100 µM (inactive); in assay [12] it was > 100 µM (inactive). The GI50 in assay [13] is 35.8 µM (inactive); in assay [14], 31.9 µM (inactive); in assay [15], > 100 µM (inactive); in assay [16], 64.6 µM (inactive); in [17], 71.4 µM (inactive); in assay [18], 85.3 µM (inactive). Besides, the concentration for 50% growth inhibition (GI50) was 67.3 µM in assay [19] and 39.3 µM (inactive) in [20].

With `O=c1c(Sc2ncccn2)c(Sc2ncccn2)cnn1CCl`, the GI50 in assay [1] was 3.39 µM (inactive); in assay [2], 3.41 µM (inactive); in assay [3], 2.79 µM (inactive); in assay [4], 14.7 µM (inactive); in assay [5] it was 5.75 µM (inactive); in assay [6], 1.67 µM (inactive). Also, the GI50 in [7] was 11.1 µM (inactive); in [8], 16.4 µM (inactive); in assay [9], 1.76 µM (inactive); in assay [10] it was 10.2 µM (inactive); in assay [11] it was 1.87 µM (inactive); in assay [12], 4.67 µM (inactive). In addition, the GI50 in [13] was 1.49 µM (inactive); in assay [14] it was 0.665 µM (active); in assay [15], 3.23 µM (inactive); in assay [16], 6.87 µM (inactive); in assay [17] it was 2.01 µM (inactive); in [18], 2.12 µM (inactive). Further, the results for the concentration for 50% growth inhibition (GI50) in assay [19] and in [20] were 3.02 µM and 2.48 µM (inactive), respectively.

For `Nc1ccn(C2CC3OCC3O2)c(=O)n1` (stereo not given), the GI50 in assay [1], in [2], in [3], in assay [4], in assay [5] and in assay [6] was > 100 µM (inactive) in each case. Besides, the GI50 in [7], in assay [8], in assay [9], in [10], in assay [11] and in assay [12] was > 100 µM (inactive) each time. Further, the GI50 in assay [13], in assay [14], in [15], in [16], in [17] and in assay [18] was > 100 µM (inactive) throughout. Besides, the 50% growth inhibitory concentration (GI50) in assay [19] is > 100 µM; in [20], > 100 µM (inactive).

As to `COc1ccc2cc(C(C)C(=O)N3CCOC3=O)ccc2c1` (stereo not given), the GI50 in assay [1], in assay [2], in assay [3], in [4], in assay [5] and in assay [6] was > 100 µM (inactive) throughout. The GI50 in assay [7], in [8], in [9], in assay [10], in [11] and in assay [12] was > 100 µM (inactive) each time. Further, the GI50 in assay [13], in [14], in assay [15], in assay [16], in [17] and in assay [18] was > 100 µM (inactive) throughout. The concentration for 50% growth inhibition (GI50) was > 100 µM in assay [19] and > 100 µM (inactive) in assay [20].
